Reference: patent US8048918B2, “Treatment of hyperproliferative diseases” (Vampex Limited, priority 2000, dated 2011)
Where no end group is shown, it is not given here.

Tests used:
[1] = test system: normal human epidermal keratinocytes; experiment: differentiation assay (K1/K10) on normal human epidermal keratinocytes; assay type: cell-based; conditions: for differentiation: Carbenoxolone 6 μM, Disulfiram 15 μM or Citral 10 μM, 1.2 mM calcium, FIG. 11
Protocol: (§1) Primary cultures were seeded at 3500 cells/cm^2 in K-SFM 25 cm^2 tissue culture flasks. The medium was changed (5 ml per flask) the day after seeding and every other day thereafter. At 70-80% confluence the cells were subcultured by seeding 3500 cells/cm^2 in new 25 cm^2 flasks. On the day that the subcultures reached confluence the medium was switched to medium containing the experimental treatments.
(§2) The cells were cultured for 4 days, replacing the experimental medium every other day, before harvesting the cells.
RNA extraction is carried out according to the manufacturers instructions using the RNeasy kit (QIAGEN). 20 μg of RNA for each treatment was separated on a 1.2% agarose (1.8% formaldehyde) gel and transferred onto a nylon membrane (Zeta probe GT membranes, BioRad) by capillary transfer. The RNA is fixed to the membrane by UV crosslinking. DNA probes for the differentiation markers K1 and K10(50 ng) are labelled with [α-^32P] dCTP using the Prime-It RmT Primer labeling kit (Stratagene) following the manufacturer's instructions. Unincorporated nucleotides are removed by elution through a Microspin G25 column (Pharmacia Biotech). The blots are wetted in 0.25M sodium phosphate (pH 7.2)/7% SDS for 30 minutes at 65° C. Fresh hybridisation solution is added along with the radiolabelled probe and the blot is hybridised overnight at 65° C.
The blot is washed for 2×5 minutes in 0.25M sodium phosphate (pH 7.2), 7% SDS and then for 2×5 minutes in 20 mM sodium phosphate (pH 7.2), 5% SDS at 65° C. The wash steps are repeated until a clear distinction can be made between the signal and non-specific background. The blot is exposed to x-ray film for 24 hours before developing.
Synthesis of mRNA for the K1 and K10 keratin (markers for commitment to terminal differentiation) is examined by quantitative reverse transcription PCR (RT-PCR). Synthesis of mRNA for Cyclin D (a marker for cell proliferation) is also assayed by RT-PCR. […] The RNA is blotted onto a nylon membrane by capillary transfer and expression of K1 mRNA is determined by Northern hybridisation with a radiolabelled DNA probe. […]

[2] = test system: normal human epidermal keratinocytes; experiment: proliferation assay on normal human epidermal keratinocytes; assay type: cell-based
Protocol: Pieces of skin are washed thoroughly for 30 minutes in Betadine solution (10% iodine) followed by 2×10 minute washes in PBS. After removal of the subcutaneous tissue and dermis with a scalpel the skin is dissected into 5×10 mm pieces. The skin pieces are rinsed 5× in PBS followed by incubating in Dispase (grade 11, 2.4 U/ml, Boehringer Mannheim) for 18 hours at4° C.
The skin pieces are then placed dermis side down in 100 mm Petri dishes and are irrigated with 5 ml KSFM. The epidermis is peeled off with forceps and incubated in 10 ml 1× Trypsin/EDTA solution for 10 minutes at 37° C. followed by addition of 10 ml KSFM. The sample is mechanically agitated by aspiration and ejection from a transfer pipette. The resulting cell suspension is sieved using a cell strainer (Becton Dickinson) rinsing through with KSFM. The isolated epidermal cells are then washed twice in KSFM by centrifugation at 100 g for 10 min. Cells are seeded as below.
as §1, §2
Cell Seeding and Analysis: Purchased secondary cultures or primary cultures (from donor skin) are seeded at 3500 cells/cm^2 in K-SFM 25 cm^2 tissue culture flasks. The medium is changed (5 ml per flask) the day after seeding and every other day thereafter. […]
The medium is replaced every other day. […] The cell suspension is added to 20 ml Isoton solution in a Coulter counter “Accuvette” and the cells are counted. On each harvest, 3 wells of cells are counted for each treatment and 3 counts were made for each well.
Cell number is calculated as follows: Coulter Counter removes 500 μl of 20 ml sample ( 1/40). […]

[3] = Carbenoxolone 6 μM, Disulfiram 15 μM or Citral 10 μM

What does the source list for `CC(C)=CCCC(C)=CC=O` [Citral, 3,7-dimethyl-2,6-octadienal]?
differentiation [1]: increase differentiation; proliferation [2, 3]: inhibit proliferation

What does the source list for `CC1(C)[C@@H](OC(=O)CCC(=O)O)CC[C@]2(C)[C@H]3C(=O)C=C4[C@@H]5C[C@@](C)(C(=O)O)CC[C@]5(C)CC[C@@]4(C)[C@]3(C)CC[C@@H]12` [Carbenoxolone]?
differentiation [1]: increase differentiation; proliferation [2, 3]: inhibit proliferation

What does the source list for GRVRLLNNWDVCA?
differentiation (expression of K1 and K10 markers) ([1]; peptide 6 μM, RBP 0.6 μM, Ca 1.2 mM, FIG. 6): enhances the expression of K1 and K10 markers; proliferation ([2]; peptide 6 μM, RBP 0.6 μM, Ca 1.2 mM): reduces proliferation
